Species: Rattus norvegicus
Assay: DrugMatrix - Regimen: Daily Repeat
Assay type: toxicity, organism-based, Sprague-Dawley
Set-up: regimen Daily Repeat, gender Male, age 6-8 weeks
Conditions: in vivo, po, route oral GAVAGE, vehicle 100 % WATER; for ABSOLUTE BASOPHIL / ABSOLUTE EOSINOPHIL / ABSOLUTE LYMPHOCYTE / ABSOLUTE MONOCYTE / ABSOLUTE SEGMENTED NEUTROPHIL / BASOPHIL / EOSINOPHIL / ERYTHROCYTE COUNT / HEMATOCRIT / HEMOGLOBIN / LEUKOCYTE COUNT / LYMPHOCYTE / MEAN CORPUSCULAR HEMOGLOBIN / MEAN CORPUSCULAR HEMOGLOBIN CONCENTRATION / MEAN CORPUSCULAR VOLUME / MONOCYTE / NEUTROPHIL / NUCLEATED RED BLOOD CELLS / PLATELET COUNT: tissue Blood; for ALANINE AMINOTRANSFERASE / ALBUMIN / ALKALINE PHOSPHATASE / ASPARTATE AMINOTRANSFERASE / BLOOD UREA NITROGEN / CARBON DIOXIDE / CHLORIDE / CHOLESTEROL / CREATINE PHOSPHOKINASE / CREATININE / GLUCOSE / LACTATE DEHYDROGENASE / LIPASE / PHOSPHORUS / POTASSIUM / SODIUM / TOTAL BILIRUBIN / TOTAL PROTEIN / URIC ACID: tissue Plasma
[1] = 110 mg/kg, 72 h, dose level Low, time 3 day
[2] = 110 mg/kg, 120 h, dose level Low, time 5 day
[3] = 400 mg/kg, 72 h, dose level High, time 3 day
[4] = 400 mg/kg, 120 h, dose level High, time 5 day

CCOC(=O)n1ccn(C)c1=S [CARBIMAZOLE]
ABSOLUTE BASOPHIL [1]: 0 CELLS/uL
ABSOLUTE EOSINOPHIL [1]: 15.67 CELLS/uL
ABSOLUTE LYMPHOCYTE [1]: 5022.67 CELLS/uL
ABSOLUTE MONOCYTE [1]: 37.33 CELLS/uL
ABSOLUTE SEGMENTED NEUTROPHIL [1]: 357.67 CELLS/uL
BASOPHIL [1]: 0%
EOSINOPHIL [1]: 0.33%
ERYTHROCYTE COUNT [1]: 5.37 x10E6/uL
HEMATOCRIT [1]: 33.5%
HEMOGLOBIN [1]: 13.37 G/DL
LEUKOCYTE COUNT [1]: 5.43 x10E3/uL
LYMPHOCYTE [1]: 92%
MEAN CORPUSCULAR HEMOGLOBIN [1]: 24.9 pg
MEAN CORPUSCULAR HEMOGLOBIN CONCENTRATION [1]: 39.9 G/DL
MEAN CORPUSCULAR VOLUME [1]: 62.43 fL
MONOCYTE [1]: 0.67%
NEUTROPHIL [1]: 7%
NUCLEATED RED BLOOD CELLS [1]: 0 /100WBC
PLATELET COUNT [1]: 1166.67 x10E3/uL
ALANINE AMINOTRANSFERASE [1]: 39.33 u/L
ALBUMIN [1]: 4.23 G/DL
ALKALINE PHOSPHATASE [1]: 314 u/L
ASPARTATE AMINOTRANSFERASE [1]: 65.33 u/L
BLOOD UREA NITROGEN [1]: 19.33 mg/dL
CARBON DIOXIDE [1]: 29.33 mmol/L
CHLORIDE [1]: 102 MEQ/L
CHOLESTEROL [1]: 81.67 mg/dL
CREATINE PHOSPHOKINASE [1]: 137 u/L
CREATININE [1]: 0.2 mg/dL
GLUCOSE [1]: 129.33 mg/dL
LACTATE DEHYDROGENASE [1]: 155 u/L
LIPASE [1]: 9.33 u/L
PHOSPHORUS [1]: 10.27 mg/dL
POTASSIUM [1]: 6.06 MEQ/L
SODIUM [1]: 147.63 MEQ/L
TOTAL BILIRUBIN [1]: 0.2 mg/dL
TOTAL PROTEIN [1]: 6 G/DL
URIC ACID [1]: 0.7 mg/dL
ABSOLUTE BASOPHIL [2]: 0 CELLS/uL
ABSOLUTE EOSINOPHIL [2]: 0 CELLS/uL
ABSOLUTE LYMPHOCYTE [2]: 14370.67 CELLS/uL
ABSOLUTE MONOCYTE [2]: 96 CELLS/uL
ABSOLUTE SEGMENTED NEUTROPHIL [2]: 766.67 CELLS/uL
BASOPHIL [2]: 0%
EOSINOPHIL [2]: 0%
ERYTHROCYTE COUNT [2]: 6.23 x10E6/uL
HEMATOCRIT [2]: 38.1%
HEMOGLOBIN [2]: 14.73 G/DL
LEUKOCYTE COUNT [2]: 15.23 x10E3/uL
LYMPHOCYTE [2]: 94%
MEAN CORPUSCULAR HEMOGLOBIN [2]: 23.67 pg
MEAN CORPUSCULAR HEMOGLOBIN CONCENTRATION [2]: 38.73 G/DL
MEAN CORPUSCULAR VOLUME [2]: 61.13 fL
MONOCYTE [2]: 0.67%
NEUTROPHIL [2]: 5.33%
NUCLEATED RED BLOOD CELLS [2]: 0 /100WBC
PLATELET COUNT [2]: 998 x10E3/uL
ALANINE AMINOTRANSFERASE [2]: 56.67 u/L
ALBUMIN [2]: 4.53 G/DL
ALKALINE PHOSPHATASE [2]: 416.67 u/L
ASPARTATE AMINOTRANSFERASE [2]: 76.67 u/L
BLOOD UREA NITROGEN [2]: 19 mg/dL
CARBON DIOXIDE [2]: 23.33 mmol/L
CHLORIDE [2]: 103 MEQ/L
CHOLESTEROL [2]: 83 mg/dL
CREATINE PHOSPHOKINASE [2]: 286 u/L
CREATININE [2]: 0.2 mg/dL
GLUCOSE [2]: 154 mg/dL
LACTATE DEHYDROGENASE [2]: 175.67 u/L
LIPASE [2]: 9.67 u/L
PHOSPHORUS [2]: 12.53 mg/dL
POTASSIUM [2]: 6.34 MEQ/L
SODIUM [2]: 148.13 MEQ/L
TOTAL BILIRUBIN [2]: 0.2 mg/dL
TOTAL PROTEIN [2]: 6.87 G/DL
URIC ACID [2]: 1.97 mg/dL
ABSOLUTE BASOPHIL [3]: 0 CELLS/uL
ABSOLUTE EOSINOPHIL [3]: 0 CELLS/uL
ABSOLUTE LYMPHOCYTE [3]: 9627.33 CELLS/uL
ABSOLUTE MONOCYTE [3]: 0 CELLS/uL
ABSOLUTE SEGMENTED NEUTROPHIL [3]: 872.67 CELLS/uL
BASOPHIL [3]: 0%
EOSINOPHIL [3]: 0%
ERYTHROCYTE COUNT [3]: 5.66 x10E6/uL
HEMATOCRIT [3]: 35.3%
HEMOGLOBIN [3]: 14.1 G/DL
LEUKOCYTE COUNT [3]: 10.5 x10E3/uL
LYMPHOCYTE [3]: 91.67%
MEAN CORPUSCULAR HEMOGLOBIN [3]: 24.9 pg
MEAN CORPUSCULAR HEMOGLOBIN CONCENTRATION [3]: 40.03 G/DL
MEAN CORPUSCULAR VOLUME [3]: 62.3 fL
MONOCYTE [3]: 0%
NEUTROPHIL [3]: 8.33%
NUCLEATED RED BLOOD CELLS [3]: 0 /100WBC
PLATELET COUNT [3]: 1182.33 x10E3/uL
ALANINE AMINOTRANSFERASE [3]: 38.33 u/L
ALBUMIN [3]: 4.2 G/DL
ALKALINE PHOSPHATASE [3]: 421 u/L
ASPARTATE AMINOTRANSFERASE [3]: 56 u/L
BLOOD UREA NITROGEN [3]: 12.67 mg/dL
CARBON DIOXIDE [3]: 25.67 mmol/L
CHLORIDE [3]: 101.67 MEQ/L
CHOLESTEROL [3]: 82 mg/dL
CREATINE PHOSPHOKINASE [3]: 338 u/L
CREATININE [3]: 0.17 mg/dL
GLUCOSE [3]: 149 mg/dL
LACTATE DEHYDROGENASE [3]: 171 u/L
LIPASE [3]: 9.67 u/L
PHOSPHORUS [3]: 11.57 mg/dL
POTASSIUM [3]: 6.88 MEQ/L
SODIUM [3]: 143.1 MEQ/L
TOTAL BILIRUBIN [3]: 0.2 mg/dL
TOTAL PROTEIN [3]: 5.97 G/DL
URIC ACID [3]: 1.73 mg/dL
ABSOLUTE BASOPHIL [4]: 0 CELLS/uL
ABSOLUTE EOSINOPHIL [4]: 0 CELLS/uL
ABSOLUTE LYMPHOCYTE [4]: 9558.67 CELLS/uL
ABSOLUTE MONOCYTE [4]: 45.33 CELLS/uL
ABSOLUTE SEGMENTED NEUTROPHIL [4]: 1996 CELLS/uL
BASOPHIL [4]: 0%
EOSINOPHIL [4]: 0%
ERYTHROCYTE COUNT [4]: 5.99 x10E6/uL
HEMATOCRIT [4]: 37.23%
HEMOGLOBIN [4]: 15.17 G/DL
LEUKOCYTE COUNT [4]: 11.6 x10E3/uL
LYMPHOCYTE [4]: 82.33%
MEAN CORPUSCULAR HEMOGLOBIN [4]: 25.33 pg
MEAN CORPUSCULAR HEMOGLOBIN CONCENTRATION [4]: 40.73 G/DL
MEAN CORPUSCULAR VOLUME [4]: 62.13 fL
MONOCYTE [4]: 0.33%
NEUTROPHIL [4]: 17.33%
NUCLEATED RED BLOOD CELLS [4]: 0 /100WBC
PLATELET COUNT [4]: 1416 x10E3/uL
ALANINE AMINOTRANSFERASE [4]: 37.33 u/L
ALBUMIN [4]: 3.73 G/DL
ALKALINE PHOSPHATASE [4]: 235 u/L
ASPARTATE AMINOTRANSFERASE [4]: 30.33 u/L
BLOOD UREA NITROGEN [4]: 19 mg/dL
CARBON DIOXIDE [4]: 20.67 mmol/L
CHLORIDE [4]: 105.33 MEQ/L
CHOLESTEROL [4]: 80 mg/dL
CREATINE PHOSPHOKINASE [4]: 198 u/L
CREATININE [4]: 0.16 mg/dL
GLUCOSE [4]: 124.67 mg/dL
LACTATE DEHYDROGENASE [4]: 434.67 u/L
LIPASE [4]: 9.33 u/L
PHOSPHORUS [4]: 11.57 mg/dL
POTASSIUM [4]: 6.35 MEQ/L
SODIUM [4]: 144.43 MEQ/L
TOTAL BILIRUBIN [4]: 0.17 mg/dL
TOTAL PROTEIN [4]: 5.8 G/DL
URIC ACID [4]: 1.57 mg/dL
